Data: patent US20230126310A1 (priority 2020, published 2023)
Structures can show the parent of a compound that is named as a salt. Where two headings read alike, the source gives them in different places.

System: SARS-CoV-2
Assay: microbe, parasite or virus in culture
Conditions: Severe acute respiratory syndrome coronavirus 2, Caco-2, 48 h; for inhibition at 10 µM: read-out: % Inh. (% Inhibition of SARS-CoV-2)

Row | Compound | inhibition at 10 µM [%] | IC50 [µM] | IC50 (read-out: pIC50 (converted)) [µM]
1 | CCNC(=O)Nc1ccc(-c2nc3c(c(N4CCOC[C@@H]4C)n2)CCN(C2COC2)C3)cc1 [GDC-0349] | 83.8 |  | 
2 | COc1ccc(NC(=O)c2ccc(-c3ccc(-c4noc(C)n4)cc3C)cc2)cc1N1CCN(C)CC1 [GR-127935] | 53.7 |  | 
3 | CS(=O)(=O)CCNCc1nc(-c2ccc3ncnc(Nc4ccc(OCc5cccc(F)c5)c(Cl)c4)c3c2)cs1 [GW-583340] | 60.1 |  | 
4 | C[C@]12CC[C@H](O)CC1=CC[C@@H]1[C@@H]2CC[C@]2(C)C(n3cnc4ccccc43)=CC[C@@H]12 [Galeterone (TOK-001), Galeterone] | 69 |  | 
5 | CC1(C)S[C@@H]2[C@H](N3C(=O)[C@@H](c4ccccc4)NC3(C)C)C(=O)N2[C@H]1C(=O)O [HETACILLIN POTASSIUM] | 67.1 |  | 
6 | Oc1c(Cl)cc(Cl)c(Cl)c1Cc1c(O)c(Cl)cc(Cl)c1Cl [HEXACHLOROPHENE] | 92.9 |  | 
7 | CCOc1cc2ncc(C#N)c(Nc3ccc(OCc4cccc(F)c4)c(Cl)c3)c2cc1NC(=O)/C=C/CN(C)C [HKI-357] | 77.7 |  | 
8 | CN1CCc2cc3c(cc2C1O)OCO3 (stereo not drawn) [HYDRASTININE HYDROCHLORIDE] | 56.3 |  | 
9 | CCN(CC)CCNc1ccc(CO)c2sc3ccccc3c(=O)c12 [Hycanthone] | 60.2 |  | 
10 | CC(C)Oc1ccc2c(=O)c(-c3ccccc3)coc2c1 [IPRIFLAVONE] | 51.4 |  | 
11 | C#Cc1cccc(Nc2ncnc3cc4c(cc23)OCCOCCOCCO4)c1 [Icotinib] | 68.1 |  | 
12 | C[C@@H](c1nc(-c2ccc(C#N)cc2)cs1)[C@](O)(Cn1cncn1)c1cc(F)ccc1F [Isavuconazole] | 92.8 |  | 
13 | Clc1ccc(C(Cn2ccnc2)OCc2c(Cl)cccc2Cl)c(Cl)c1 (stereo not drawn) [Isoconazole nitrate (Travogen), Isoconazole nitrate] | 75.9 |  | 
14 | Cc1ccc(C(=O)N(CCCN)[C@@H](c2nc3cc(Cl)ccc3c(=O)n2Cc2ccccc2)C(C)C)cc1 [Ispinesib (SB-715992), Ispinesib] | 91.9 |  | 
15 | CN(C)C(=O)C(CCN1CCC(O)(c2ccc(Cl)cc2)CC1)(c1ccccc1)c1ccccc1 [LOPERAMIDE HYDROCHLORIDE] | 58.9 |  | 
16 | O[C@@H](COc1cccc2ncccc12)CN1CCN([C@@H]2c3ccccc3[C@@H]3[C@H](c4ccccc42)C3(F)F)CC1 [LY335979 (Zosuquidar trihydrochloride), Zosuquidar trihydrochloride] | 93 | 26.8 | 26.9
17 | N#C/C(=C1/SCC(c2ccccc2Cl)S1)n1ccnc1 (stereo not drawn) [Lanoconazole] | 70.7 |  | 
18 | O=C(NC1CCN(CCCCC2(C(=O)NCC(F)(F)F)c3ccccc3-c3ccccc32)CC1)c1ccccc1-c1ccc(C(F)(F)F)cc1 [Lomitapide] | 77.4 |  | 
19 | CCNC(=O)c1noc(-c2cc(C(C)C)c(O)cc2O)c1-c1ccc(CN2CCOCC2)cc1 [Luminespib] | 104 |  | 
20 | CN1C[C@H](CNC(=O)OCc2ccccc2)C[C@@H]2c3cccc4c3c(cn4C)C[C@H]21 [METERGOLINE] | 54.6 |  | 
21 | CNC(=O)[C@@H](NC(=O)[C@H](CC(C)C)[C@H](O)C(=O)NO)C(C)(C)C [Marimastat] | 68.7 |  | 
22 | CCc1cc2cc(OC)c(OC)cc2c(Cc2ccccc2)n1 [Moxaverine] | 68.7 |  | 

Row | Compound | inhibition at 10 µM [%] | IC50 [µM] | IC50 (read-out: pIC50 (converted)) [µM]
23 | C/C(=N\NC(=S)NNC(=S)Nc1ccccc1Cl)c1ccccn1 [N-(2-chlorophenyl)-2-({(2E)-2-[1-(2-pyridinyl)ethylidene]hydrazino}carbothioyl)hydrazinecarbothioamide] | 101 |  | 
24 | COc1ccccc1N1CCN(CC(O)COc2cccc3ccccc23)CC1 (stereo not drawn) [NAFTOPIDIL] | 90.6 |  | 
25 | CCc1nn(CCCN2CCN(c3cccc(Cl)c3)CC2)c(=O)n1CCOc1ccccc1 [NEFAZODONE HYDROCHLORIDE] | 71.7 |  | 
26 | NC(=O)N/N=C/c1ccc([N+](=O)[O-])o1 [NITROFURAZONE] | 87.3 |  | 
27 | C[C@@]1(O)[C@H](O)[C@@H](CO)O[C@H]1n1ccc(N)nc1=O [NM107, 2′-C-methylcytidine, 2′-C-methylcytidine] | 60.1 |  | 
28 | O=C(CC(c1ccccc1)c1ccccc1)N1CCN(C(c2ccccc2)c2ccccc2)CC1 [NP118809] | 60.8 |  | 
29 | Cc1c(O)cccc1C(=O)N[C@@H](CSc1ccccc1)[C@H](O)CN1C[C@H]2CCCC[C@H]2C[C@H]1C(=O)NC(C)(C)C [Nelfinavir Mesylate] | 88.6 | 2.65 | 2.63
30 | COc1cccc2cc(-c3nc([C@H]4CC[C@H](C(=O)O)CC4)n4ncnc(N)c34)[nH]c12 [OSI-027] | 105 |  | 
31 | C[C@]1(O)C[C@@H](c2nc(-c3ccc4ccc(-c5ccccc5)nc4c3)c3c(N)nccn32)C1 [OSI-906 (Linsitinib), Linsitinib] | 110 | 24.9 | 25.1
32 | O=C(Nc1ccc(OC(F)(F)F)cc1)c1sccc1NCc1ccnc2ccccc12 [OSI-930] | 100 |  | 
33 | O=C(Nc1cc(Cl)cc(Cl)c1O)c1c(O)c(Cl)cc(Cl)c1Cl [OXYCLOZANIDE] | 94.4 |  | 
34 | COC[C@H](NC(=O)c1cnc(C)s1)C(=O)N[C@@H](COC)C(=O)N[C@@H](Cc1ccccc1)C(=O)[C@@]1(C)CO1 [Oprozomib (ONX 0912), Oprozomib] | 52.7 |  | 
35 | OCCOc1ccc(/C(=C(/CCCl)c2ccccc2)c2ccccc2)cc1 [Ospemifene] | 52.9 |  | 
36 | COc1ccc(Cc2nccc3cc(OC)c(OC)cc23)cc1OC [PAPAVERINE HYDROCHLORIDE] |  | 0.95 | 0.955
37 | C[C@H](/C=C/[C@H](C)C(C)(C)O)[C@H]1CC[C@H]2/C(=C/C=C3C[C@@H](O)C[C@H](O)C3)CCC[C@]12C [PARICALCITOL] | 86 |  | 
38 | OC1(c2ccc(Cl)c(C(F)(F)F)c2)CCN(CCCC(c2ccc(F)cc2)c2ccc(F)cc2)CC1 [PENFLURIDOL] | 85.9 |  | 
39 | N=C(N)c1ccc(OCCCCCOc2ccc(C(=N)N)cc2)cc1 [PENTAMIDINE ISETHIONATE] | 54.6 |  | 
40 | C1CCC(C(CC2CCCCN2)C2CCCCC2)CC1 (stereo not drawn) [PERHEXILINE MALEATE] | 55.4 |  | 
41 | O=c1[nH]c2ccccc2n1C1CCN(CCCC(c2ccc(F)cc2)c2ccc(F)cc2)CC1 [PIMOZIDE] | 94 |  | 
42 | COc1cc2nc(N3CCN(C(=O)c4ccco4)CC3)nc(N)c2cc1OC [PRAZOSIN HYDROCHLORIDE] | 58 |  | 
43 | CC(=O)OCC(=O)[C@@]1(O)CC[C@H]2[C@@H]3CCC4=CC(=O)C=C[C@]4(C)[C@H]3[C@@H](O)C[C@@]21C [PREDNISOLONE ACETATE] | 60 |  | 
44 | Nc1ccc2cc3ccc(N)cc3nc2c1 [PROFLAVINE HEMISULFATE] | 95.8 | 26.7 | 26.9

Row | Compound | inhibition at 10 µM [%] | IC50 [µM] | IC50 (read-out: pIC50 (converted)) [µM]
45 | O=C1c2cccc3c2[C@H](CCC3)CN1[C@@H]1CN2CCC1CC2 [Palonosetron HCl] | 57.4 |  | 
46 | CCOc1cc2ncc(C#N)c(Nc3ccc(F)c(Cl)c3)c2cc1NC(=O)/C=C/CN(C)C [Pelitinib (EKB-569), Pelitinib] | 83.4 |  | 
47 | O=C(NC[C@H](O)CO)c1ccncc1Nc1ccc(I)cc1F [Pimasertib (AS-703026), Pimasertib] | 53.2 |  | 
48 | C=C[C@H]1CN2CC[C@H]1C[C@H]2[C@H](OC(=O)OCC)c1ccnc2ccc(OC)cc12 [QUININE ETHYL CARBONATE] | 59.1 |  | 
49 | O=C(NO)c1cnc(N2CCN(S(=O)(=O)c3ccc4ccccc4c3)CC2)nc1 [R306465] | 57.3 |  | 
50 | COC(=O)[C@H]1[C@H]2C[C@@H]3c4[nH]c5cc(OC)ccc5c4CCN3C[C@H]2C[C@@H](OC(=O)c2cc(OC)c(OC)c(OC)c2)[C@@H]1OC [RESERPINE] | 67.8 |  | 
51 | C=CCNc1c(O)cc2c(O)c1C[C@@H](C)C[C@H](OC)[C@H](O)[C@@H](C)/C=C(\C)[C@H](OC(N)=O)[C@@H](OC)/C=C\C=C(/C)C(=O)N2 [Retaspimycin (Hydrochloride)] | 74.7 |  | 
52 | Cc1nc(Nc2ccc(F)cc2)nc(N2CCc3ccccc3C2C)c1C (stereo not drawn) [Revaprazan Hydrochloride] | 90.9 |  | 
53 | C=CC(=O)Nc1cccc(Nc2nc(Nc3ccc(N4CCN(C(C)=O)CC4)cc3OC)ncc2C(F)(F)F)c1 [Rociletinib (CO-1686, AVL-301), Rociletinib] | 84.9 |  | 
54 | O=C(O)c1ccccc1O [SALICYLIC ACID] | 71.3 |  | 
55 | CO[C@H]1C[C@H](O[C@@H]2/C(C)=C/C[C@@H]3C[C@@H](C[C@]4(CC[C@H](C)[C@@H](C5CCCCC5)O4)O3)OC(=O)[C@@H]3C=C(C)/C(=N/O)[C@H]4OC/C(=C\C=C\[C@@H]2C)[C@]43O)O[C@@H](C)[C@@H]1O [SELAMECTIN] | 68.2 |  | 
56 | COc1ccc(CCc2nc3cc(-c4c(C)noc4C)ccc3n2C[C@H](C)N2CCOCC2)cc1Cl [SGC-CBP30] | 59.2 |  | 
57 | COc1ccc(CCCOC(Cn2ccnc2)c2ccc(OC)cc2)cc1 (stereo not drawn) [SKF-96365] | 70.3 |  | 
58 | COC(=O)C1=C(C)NC(C)=C(C(=O)NCCCN2CCC(c3ccccc3)(c3ccccc3)CC2)C1c1ccc([N+](=O)[O-])cc1 (stereo not drawn) [SNAP-5089] | 72.6 |  | 
59 | CC1(C)CC(=O)c2c(C(F)(F)F)nn(-c3ccc(C(N)=O)c(N[C@H]4CC[C@H](O)CC4)c3)c2C1 [SNX-2112] | 96.6 |  | 
60 | O=C(O)CCCO [SODIUM OXYBATE] | 57.3 |  | 
61 | NC(=O)NS(=O)(=O)c1ccc(N)cc1 [SULFACARBAMIDE] | 58.1 |  | 
62 | Clc1ccc(C(Cn2ccnc2)OCc2csc3c(Cl)cccc23)c(Cl)c1 (stereo not drawn) [Sertaconazole nitrate] | 88.9 |  | 
63 | CC(C)(O)CC(=O)NCCn1ccc2ncnc(Nc3ccc(Oc4cccc(C(F)(F)F)c4)c(Cl)c3)c21 [TAK-285] | 73 |  | 
64 | COc1cc(C(=O)NC2CCN(C)CC2)c(F)cc1Nc1ncc2c(n1)N(C1CCCC1)CC(F)(F)C(=O)N2C [TAK-960] | 91.6 |  | 
65 | Cn1cnc2c1c(=O)[nH]c(=O)n2C [THEOBROMINE] | 52.4 |  | 
66 | Clc1ccc(C(Cn2ccnc2)OCc2ccsc2Cl)c(Cl)c1 (stereo not drawn) [TIOCONAZOLE] | 50.6 |  | 
